US10821115B2, “Compounds that inhibit Mcl-1 protein” (priority 2017, dated 2020)
Read-outs that look alike come from different tables or passages of the source.

Assays:
[1] = target: recombinant human Mcl-1 (residues 171-327) / Bim interaction (Homo sapiens (Human), UniProt Q07820); experiment: biochemical; format: binding; details: 0.1 nM Mcl-1(171-327), 0.05 nM biotin-Bim (51-76); read-out: Mcl-1 HTRF IC50
[2] = system: human multiple myeloma cell line, OPM-2; experiment: Cell viability assay (OPM-2 10 FBS), CellTiter-Glo; format: cell-based
In short: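 Steps: plate cells at 3000/well in 10% FBS growth medium, add serially diluted compound, incubate 16 h at 37 °C with 5% CO2, add detection reagent and read luminescence after 25 min. A 4-parameter logistic model gives IC50.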

[3] = Homo sapiens, OPM-2, 16 h, read-out: OPM-2 10% FBS IC50 IP, OPM-2 cells, 10% FBS, 16 h incubation
[4] = read-out: OPM-2 10% FBS IC50 IP, OPM-2 cells, 10% FBS, 16 h incubation

Sequence of recombinant human Mcl-1 (residues 171-327) / Bim interaction (Q07820 171-327): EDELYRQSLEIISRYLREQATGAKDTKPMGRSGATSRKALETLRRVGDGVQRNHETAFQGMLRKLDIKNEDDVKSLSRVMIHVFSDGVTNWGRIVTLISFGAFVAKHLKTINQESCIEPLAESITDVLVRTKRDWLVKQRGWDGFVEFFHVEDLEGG

| Structure (SMILES) | IC50 [1] | IC50 [2, 3] | IC50 [2, 4] |
| --- | --- | --- | --- |
| CCCN1CCN(C[C@@]2(OCC)/C=C/C[C@H](C)[C@@H](C)S(=O)(=O)NC(=O)c3ccc4c(c3)N(C[C@@H]3CC[C@H]32)C[C@@]2(CCCc3cc(Cl)ccc32)CO4)CC1 [Example 98, (1S,3′R,6′R,7′R,8′E,11′S,12′R)-6-chloro-7′-ethoxy-11′,12′-dimethyl-7′-((4-propyl-1-piperazinyl)methyl)-3,4-dihydro-2H,15′H-spiro[naphthalene-1,22′-[20]oxa[13]thia[1,14]diazatetracyclo [14.7.2.0~3,6~.0~19,24~]pentacosa[8,16,18,24]tetraen]-15′-one 13′,13′-dioxide] | 0.373 nM | 183 nM |  |
| CCO[C@@]1(CN2CCN3CCOC[C@@H]3C2)/C=C/C[C@H](C)[C@@H](C)S(=O)(=O)NC(=O)c2ccc3c(c2)N(C[C@@H]2CC[C@H]21)C[C@@]1(CCCc2cc(Cl)ccc21)CO3 [Example 101, (1S,3′R,6′R,7′S,8′E,11′S,12′R)-6-chloro-7′-ethoxy-7′-((9aS)-hexahydropyrazino[2,1-c][1,4]oxazin-8(1H)-ylmethyl)-11′,12′-dimethyl-3,4-dihydro-2H,15′H-spiro[naphthalene-1,22′-[20]oxa[13]thia[1,14]diazatetracyclo [14.7.2.0~3,6~.0~19,24~]pentacosa[8,16,18,24]tetraen]-15′-one 13′,13′-dioxide] | 0.196 nM | 263 nM |  |
| CCO[C@@]1(CN2CCN(C3COC3)CC2)/C=C/C[C@H](C)[C@@H](C)S(=O)(=O)NC(=O)c2ccc3c(c2)N(C[C@@H]2CC[C@H]21)C[C@@]1(CCCc2cc(Cl)ccc21)CO3 [Example 106, (1S,3′R,6′R,7′S,8′E,11′S,12′R)-6-chloro-7′-ethoxy-11′12′-dimethyl-7′-((4-(3-oxetanyl)-1-piperazinyl)methyl)-3,4-dihydro-2H,15′H-spiro[naphthalene-1,22′-[20]oxa[13]thia[1,14]diazatetracyclo [14.7.2.0~3,6~.0~19,24~]pentacosa[8,16,18,24]tetraen]-15′-one 13′,13′-dioxide] | 0.299 nM | 308 nM |  |
| CCO[C@@]1(CN2CCN3CCCC[C@@H]3C2)/C=C/C[C@H](C)[C@@H](C)S(=O)(=O)NC(=O)c2ccc3c(c2)N(C[C@@H]2CC[C@H]21)C[C@@]1(CCCc2cc(Cl)ccc21)CO3 [Example 107, (1S,3′R,6′R,7′S,8′E,11′S,12′R)-6-chloro-7′-ethoxy-11′,12′-dimethyl-7′-((9aR)-octahydro-2H-pyrido[1,2-a]pyrazin-2-ylmethyl)-3,4-dihydro-2H,15′H-spiro[naphthalene-1,22′-[20]oxa[13]thia[1,14]diazatetracyclo [14.7.2.0~3,6~.0~19,24~]pentacosa[8,16,18,24]tetraen]-15′-one 13′,13′-dioxide] | 1.14 nM | 872 nM |  |
| CCO[C@]1(CN2CCN3CCCC[C@@H]3C2)/C=C/C[C@H](C)[C@@H](C)S(=O)(=O)NC(=O)c2ccc3c(c2)N(C[C@@H]2CC[C@H]21)C[C@@]1(CCCc2cc(Cl)ccc21)CO3 [Example 108, (1S,3′R,6′R,7′R,8′E,11′S,12′R)-6-chloro-7′-ethoxy-11′,12′-dimethyl-7′-((9aR)-octahydro-2H-pyrido[1,2-a]pyrazin-2-ylmethyl)-3 ,4-dihydro-2H,15′H-spiro[naphthalene-1,22′-[20]oxa[13]thia[1,14]diazatetracyclo [14.7.2.0~3,6~.0~19,24~]pentacosa[8,16,18,24]tetraen]-15′-one 13′,13′-dioxide] | 0.198 nM | 116 nM |  |
| CCO[C@@]1(CN2CCC3(CC2)COC3)/C=C/C[C@H](C)[C@@H](C)S(=O)(=O)NC(=O)c2ccc3c(c2)N(C[C@@H]2CC[C@H]21)C[C@@]1(CCCc2cc(Cl)ccc21)CO3 [Example 109, (1S,3′R,6′R,7′S,8′E,11′S,12′R)-6-chloro-7′-ethoxy-11′,12′-dimethyl-7′-(2-oxa-7-azaspiro[3,5]non-7-ylmethyl)-3,4-dihydro-2H,15′H-spiro[naphthalene-1,22′-[20]oxa[13]thia[1,14]diazatetracyclo [14.7.2.0~3,6~.0~19,24~]pentacosa[8,16,18,24]tetraen]-15′-one 13′,13′-dioxide] | 1.04 nM | 916 nM |  |
| CCO[C@@]1(CN2CCC(N(C)C)CC2)/C=C/C[C@H](C)[C@@H](C)S(=O)(=O)NC(=O)c2ccc3c(c2)N(C[C@@H]2CC[C@H]21)C[C@@]1(CCCc2cc(Cl)ccc21)CO3 [Example 110, (1S,3′R,6′R,7′S,8′E,11′S,12′R)-6-chloro-7′-((4-(dimethylamino)-1-piperidinyl)methyl)-7′-ethoxy-11′,12′-dimethyl-3,4-dihydro-2H,15′H-spiro[naphthalene-1,22′-[20]oxa[13]thia[1,14]diazatetracyclo [14.7.2.0~3,6~.0~19,24~]pentacosa[8,16,18,24]tetraen]-15′-one 13′,13′-dioxide] | 0.505 nM | 1720 nM |  |
| CCO[C@@]1(CN2CCN(C(COC)COC)CC2)/C=C/C[C@H](C)[C@@H](C)S(=O)(=O)NC(=O)c2ccc3c(c2)N(C[C@@H]2CC[C@H]21)C[C@@]1(CCCc2cc(Cl)ccc21)CO3 [Example 111, (1S,3′R,6′R,7′S,8′E,11′S,12′R)-6-chloro-7′-ethoxy-7′-((4-(2-methoxy-1-(methoxymethyl)ethyl)-1-piperazinyl)methyl)-11′,12′-dimethyl-3,4-dihydro-2H,15′H-spiro[naphthalene-1,22′-[20]oxa[13]thia[1,14]diazatetracyclo [14.7.2.0~3,6~.0~19,24~]pentacosa[8,16,18,24]tetraen]-15′-one 13′,13′-dioxide] | 0.362 nM | 301 nM |  |
| CCO[C@@]1(CN2CCN(CC)CC2)/C=C/C[C@H](C)[C@@H](C)S(=O)(=O)NC(=O)c2ccc3c(c2)N(C[C@@H]2CC[C@H]21)C[C@@]1(CCCc2cc(Cl)ccc21)CO3 [Example 112, (1S,3′R,6′R,7′S,8′E,11′S,12′R)-6-chloro-7′-ethoxy-7′-((4-ethyl-1-piperazinyl)methyl)-11′,12′-dimethyl-3,4-dihydro-2H,15′H-spiro[naphthalene-1,22′-[20]oxa[13]thia[1,14]diazatetracyclo [14.7.2.0~3,6~.0~19,24~]pentacosa[8,16,18,24]tetraen]-15′-one 13′,13′-dioxide] | 0.617 nM | 654 nM |  |
| CCO[C@@]1(CN2CCC(OC)CC2)/C=C/C[C@H](C)[C@@H](C)S(=O)(=O)NC(=O)c2ccc3c(c2)N(C[C@@H]2CC[C@H]21)C[C@@]1(CCCc2cc(Cl)ccc21)CO3 [Example 113, (1S,3′R,6′R,7′S,8′E,11′S,12′R)-6-chloro-7′-ethoxy-7′-((4-methoxy-1-piperidinyl)methyl)-11′,12′-dimethyl-3,4-dihydro-2H,15′H-spiro[naphthalene-1,22′-[20]oxa[13]thia[1,14]diazatetracyclo [14.7.2.0~3,6~.0~19,24~]pentacosa[8,16,18,24]tetraen]-15′-one 13′,13′-dioxide] | 1.19 nM | 1330 nM |  |
| CCO[C@]1(CN2CCN(C(C)C)CC2)/C=C/C[C@H](C)[C@@H](C)S(=O)(=O)NC(=O)c2ccc3c(c2)N(C[C@@H]2CC[C@H]21)C[C@@]1(CCCc2cc(Cl)ccc21)CO3 [Example 114, (1S,3′R,6′R,7′R,8′E,11′S,12′R)-6-chloro-7′-ethoxy-11′,12′-dimethyl-7′-((4-(1-methylethyl)-1-piperazinyl)methyl)-3,4-dihydro-2H,15′H-spiro[naphthalene-1,22′-[20]oxa[13]thia[1,14]diazatetracyclo [14.7.2.0~3,6~.0~19,24~]pentacosa[8,16,18,24]tetraen]-15′-one 13′,13′-dioxide] | 0.104 nM | 68 nM |  |
| COC1CCN(C[C@]2(OC)/C=C/C[C@H](C)[C@@H](C)S(=O)(=O)NC(=O)c3ccc4c(c3)N(C[C@@H]3CC[C@H]32)C[C@@]2(CCCc3cc(Cl)ccc32)CO4)CC1 [Example 117, (1S,3′R,6′R,7′S,8′E,11′S,12′R)-6-chloro-7′-methoxy-7′-((4-methoxy-1-piperidinyl)methyl)-11′,12′-dimethyl-3,4-dihydro-2H,15′H-spiro[naphthalene-1,22′-[20]oxa[13]thia[1,14]diazatetracyclo [14.7.2.0~3,6~.0~19,24~]pentacosa[8,16,18,24]tetraen]-15′-one 13′,13′-dioxide] | 0.352 nM | 358 nM |  |
| CO[C@@]1(CN2CCC(N(C)C)CC2)/C=C/C[C@H](C)[C@@H](C)S(=O)(=O)NC(=O)c2ccc3c(c2)N(C[C@@H]2CC[C@H]21)C[C@@]1(CCCc2cc(Cl)ccc21)CO3 [Example 118, (1S,3′R,6′R,7′S,8′E,11′S,12′R)-6-chloro-7′-((4-(dimethylamino)-1-piperidinyl)methyl)-7′-methoxy-11′,12′-dimethyl-3,4-dihydro-2H,15′H-spiro[naphthalene-1,22′-[20]oxa[13]thia[1,14]diazatetracyclo [14.7.2.0~3,6~.0~19,24~]pentacosa[8,16,18,24]tetraen]-15′-one 13′,13′-dioxide] | 0.215 nM | 558 nM |  |
| CCO[C@]1(CN2CCN3CCS(=O)(=O)C[C@@H]3C2)/C=C/C[C@H](C)[C@@H](C)S(=O)(=O)NC(=O)c2ccc3c(c2)N(C[C@@H]2CC[C@H]21)C[C@@]1(CCCc2cc(Cl)ccc21)CO3 [Example 121] | 0.084 nM |  | 120 nM |
| CCO[C@]1(CN2CCN3CCS(=O)(=O)C[C@@H]3C2)/C=C/C[C@H](C)[C@@H](C)S(=O)(=O)NC(=O)c2ccc3c(c2)N(C[C@@H]2CC[C@H]21)C[C@@]1(CCCc2cc(Cl)ccc21)CO3 [Example 122] | 0.087 nM |  | 138 nM |
